Experiment: mn = molality of the nth substance listed, in mol/kg
Conditions: Liquid; for viscosity: Falling or rolling sphere viscometry; for electrical conductivity: Frequency=0.0003 MHz, Alternating current cell with electrodes; for mass density: Vibrating tube method

NCC(=O)O [2-aminoacetic acid] + O
87 kPa
Conditions | electrical conductivity, m1 = 0.1 [S/m] | electrical conductivity, m1 = 0.3 [S/m] | electrical conductivity, m1 = 0.5 [S/m] | mass density, m1 = 0.1 [kg/m3] | mass density, m1 = 0.3 [kg/m3] | mass density, m1 = 0.5 [kg/m3] | viscosity, m1 = 0.1 [mPa·s] | viscosity, m1 = 0.3 [mPa·s] | viscosity, m1 = 0.5 [mPa·s]
288.15 K | 0.000925 | 0.00227 | 0.00355 | 1002.42 | 1008.66 | 1014.9 | 1.144 | 1.176 | 1.208
298.15 K | 0.000963 | 0.00239 | 0.00381 | 1000.23 | 1006.29 | 1012.35 | 0.924 | 0.95 | 0.984
308.15 K | 0.00101 | 0.00253 | 0.0041 | – | 1003.23 | 1009.25 | 0.729 | 0.749 | 0.77
318.15 K | 0.00106 | 0.00269 | 0.00445 | 993.28 | 999.24 | 1005.2 | 0.613 | 0.638 | 0.662

C[C@H](N)C(=O)O [(S)-2-aminopropanoic acid] + O
Conditions | electrical conductivity, m1 = 0.1 [S/m] | electrical conductivity, m1 = 0.3 [S/m] | electrical conductivity, m1 = 0.5 [S/m] | mass density, m1 = 0.1 [kg/m3] | mass density, m1 = 0.3 [kg/m3] | mass density, m1 = 0.5 [kg/m3] | viscosity, m1 = 0.1 [mPa·s] | viscosity, m1 = 0.3 [mPa·s] | viscosity, m1 = 0.5 [mPa·s]
288.15 K, 87 kPa | 0.000237 | 0.000567 | 0.000861 | – | – | – | – | – | –
288.15 K, 100 kPa | – | – | – | 1002.1 | 1007.7 | 1013.3 | 1.16 | 1.223 | 1.286
298.15 K, 87 kPa | 0.000293 | 0.000659 | 0.000968 | – | – | – | – | – | –
298.15 K, 100 kPa | – | – | – | 999.97 | 1005.51 | 1011.05 | 0.91 | 0.955 | 1.001
308.15 K, 87 kPa | 0.000357 | 0.000783 | 0.00117 | – | – | – | – | – | –
308.15 K, 100 kPa | – | – | – | 996.94 | 1002.42 | 1007.9 | 0.738 | 0.774 | 0.809
318.15 K, 87 kPa | 0.000441 | 0.000946 | 0.00141 | – | – | – | – | – | –
318.15 K, 100 kPa | – | – | – | 993.09 | 998.47 | 1003.85 | 0.613 | 0.649 | 0.685

Reference: the NIST ThermoML archive (doi:10.1016/j.jct.2016.07.047)
